{"source": "patent US9597324B2", "about": "“Treatment of CNS disorders associated with mutations in genes encoding lysosomal enzymes” (Amicus Therapeutics, Inc., priority 2005, dated 2017)", "key": {"[1]": {"molecular_target": "T1, human mutant α-Gal A (R301Q) (Homo sapiens, UniProt P06280, R301Q)", "T1 sequence (P06280 32-429 R301Q)": "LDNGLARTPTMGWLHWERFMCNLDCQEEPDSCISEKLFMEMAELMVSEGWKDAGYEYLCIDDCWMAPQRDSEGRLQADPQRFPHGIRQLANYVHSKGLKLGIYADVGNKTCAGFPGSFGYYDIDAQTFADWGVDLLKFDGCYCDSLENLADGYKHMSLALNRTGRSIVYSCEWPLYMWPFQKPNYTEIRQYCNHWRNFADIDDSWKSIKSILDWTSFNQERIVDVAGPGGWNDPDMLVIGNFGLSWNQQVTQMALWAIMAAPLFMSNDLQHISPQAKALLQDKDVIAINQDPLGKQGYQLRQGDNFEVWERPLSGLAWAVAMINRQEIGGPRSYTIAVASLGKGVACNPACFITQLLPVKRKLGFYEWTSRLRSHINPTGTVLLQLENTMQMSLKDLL", "details": "neutral pH; cited from earlier work"}, "mutant (R301Q) α-Gal A": {"molecular_target": "T2, mutant (R301Q) α-Gal A (Homo sapiens, UniProt P06280, R301Q)", "T2 construct": "host or cells: major organs of transgenic mice", "T2 sequence (P06280 32-429 R301Q)": "T1 sequence (P06280 32-429 R301Q)", "details": "oral administration, transgenic mice overexpressing mutant (R301Q) α-Gal A; cited from earlier work"}, "[2]": {"test_system": "lymphoblasts established from Fabry patients with R301Q or Q279E mutations", "details": "cited from earlier work"}, "[3]": {"test_system": "N370S Gaucher fibroblasts (DMN89.15)", "assay": "Gba / LAMP-1 lysosomal staining (confocal microscopy) in N370S Gaucher fibroblasts", "assay_type": "cell-based, human", "details": "for Gba staining localization: N370S Gaucher fibroblasts; for Amount of Gba in the lysosomes: dual Gba/LAMP-1 staining vs untreated control; for Lysosome staining pattern for Gba and LAMP-1: dual staining vs untreated control", "description": "N370S fibroblasts (DMN89.15) were cultured in DMEM with 10% FBS and 1% penn/strep at 37 C with […]. Wild-type fibroblast cell line CRL-2097 form a healthy individual was used as a control. Cells were sub-cultured from 10 cm plates into 12-well plates with cover slips. Cells from one confluent 10 cm plate were diluted in 38 ml of culture medium.\nC-benzyl-isofagomine-control (secondary antibody only); untreated; 0.03 μM; 0.1 μM; 0.3 μM; 1.0 μM; 3.0 μM; and 10.0 μM.\nIsofagomine-control (secondary antibody only); untreated; 10 μM; 30 μM; 100 μM; 1 nM; 3 nM; and 10 nM.\nCells were cultured for a total of about 6 days.\nCells were washed for 5 minutes in PBS, fixed for 15 minutes in 3.7% paraformaldahyde (in PBS), washed again for 5 minutes in PBS, and permeabilized with 0.5% saponin for 5 minutes. Cells were then washed with PBS containing 0.1% saponin, treated for 5 minutes with fresh 0.1% sodium borohydride/0.01% saponin, and washed 3 times with PBS with 0.1% saponin/1% BSA for 5 minutes each.\nCells were incubated for 1 h with 500 μl of primary anti-Gba (1:200) or anti-LAMP-1 (1:200; BD Pharmingen, Cat. No. 555798) antibody solution in PBS with 1% BSA. Lysosomal staining using LysoTracker® Red (Cambrex, East Rutherford, N.J.) was performed according to the manufacturer's instructions. Following incubation, cells were washed 3 times in 1% BSA containing 0.1% saponin in PBS, followed by incubation with the secondary antibody solution (1:500; anti-rabbit […] for anti-Gba and anti-mouse IgG AlexaFluor594 for anti-LAMP-1). Cells were mounted onto coverslips, sealed, and immediately viewed.\nCells were visualized using a confocal microscope. The red and green channel gains were set to 6 and the laser power was optimized using the intensity window, and were not adjusted for the rest of the experiment. All slides were analyzed at the same sitting and all images were gathered without any zoom using the 20× and 60× lens, the small pinhole, optimal pixel size, an average of 2 scans, and red and green channels were acquired simultaneously as in all previous experiments."}, "human L444P mutated Gba": {"test_system": "human L444P mutated Gba", "assay": "Gba activity in brain and organs of L444P transgenic mice treated with chaperone in drinking water (incl. washout study)", "assay_type": "in vivo, mouse", "details": "for Gba activity in brain: about 10 mg/kg/day in drinking water", "description": "L444P is a mutation associated with Types 2 and 3 Gaucher disease. […] Concomitant glucosylceramide synthase disruption is necessary, since previously made L444P transgenic mice died within 3 days of birth due to impaired permeability barrier function in the epidermis.\nIn addition, mice in a “washout” period of 2 weeks of non-chaperone treatment following 4 weeks of treatment were also evaluated for reversion of surrogate markers back to levels seen in untreated controls.\nMice were administered isofagomine or C-benzyl-isofagomine in their drinking water, ad libitum. Estimated daily dosage based on the volume of water consumed is about 10 mg/kg/day.\n[…] Brian tissue is freshly harvested (blood washed away with PBS), or thawed from frozen stock. Tissue is minced tissue and homogenized on ice in 200-500 μl McIlvaine (MI) buffer (0.25% sodium taurocholate, 0.1% Triton x-100 in 0.1M citrate and 0.2M phosphate buffer, pH 5.2), and centrifuged at 10,000×g. The supernatant is collected and may be frozen at this step.\nAbout 1-10 μl of supernatant from the brain tissue homogenates is added to a clear 96-well plate for the Micro BCA Protein Assay (Pierce, cat #23235) to quantitate the amount of total protein according to the manufacturer's protocol. As a negative control, another 10 μl is added to a black plate, mixed with 10 μl of 2.5 mM CBE (2.7 mg Conduritol B Epoxide in 6.7 ml buffer), an inhibitor of Gba activity, and left at room temperature (RT) for 30 minutes. 50 μl of 3 mM 4-methal Umbelliferal beta-D-glucoside (4-MU-beta-D-glucoside; made fresh, powder is dissolved in 0.2 ml of DMSO, then q.s. to proper volume with MI buffer), a Gba substrate, is then added, and the black plate is further incubated at 37° C. for 1 hr. After incubation, 10 μl of supernatant is added to a second black plate, mixed with 10 μl of MI buffer and 50 μl […] of Gba substrate 4-MU-beta-D-glucoside, and incubated at 37° C. for 1 hr. The reaction is then stopped by adding 70 μl 0.2 M glycine, pH 10.8. The plate is read in a plate-reader (Victor2 1420 multilabel counter; Wallac) at F460.\nRelative […] is determined by the following equation: F460 without CBE−F460 with CBE)/(A550 sample−A550 buffer)\nF460 reading is converted into nmole 4-MU based on 4-MU standard curve and A550 is converted into mg of protein based on the protein standard curve. One unit of Gba activity is defined as nmole of 4-MU released in one hour.\nTo determine if and in what time frame the effects of drinking water dosed AT2101 on L444P mice regress after cessation of the treatment, a washout study was performed. Nine male 3 month old L444P mice were dosed at about 10 mg/kg/day for 4 weeks with an equal number of mice untreated as a control."}, "Gaucher patient cells": {"test_system": "Gaucher patient cells", "details": "cited from earlier work"}, "[4]": {"assay": "Detection of IFG in the CSF of treated monkeys", "assay_type": "in vivo"}, "[5]": {"details": "N370S fibroblasts, concentration not given"}, "[6]": {"details": "N370S fibroblasts, 3.0 μl (so in the source)"}, "[7]": {"details": "after two weeks of treatment, data not shown"}}}
{"compound": "OC[C@H]1NC[C@H](O)[C@@H](O)[C@H]1O", "note": "[DGJ, 1-deoxygalactonojirimycin]", "values": [{"measurement": "In vitro stability of the mutant enzyme", "setting": "[1]", "value": "effectively increased"}, {"measurement": "Enzyme activity in major organs", "setting": "mutant (R301Q) α-Gal A", "value": "substantially elevated"}, {"measurement": "Mutant enzyme activity in lymphoblasts", "setting": "[2]", "value": "enhanced"}]}
{"compound": "OC[C@H]1CNC[C@@H](O)[C@@H]1O", "note": "[isofagomine, (3R,4R,5R)-5-(hydroxymethyl)-3,4-piperidinediol]", "values": [{"measurement": "Gba staining localization", "setting": "[3]; 30 μM, Gba staining only (FIG. 2M)", "value": "localize to lysosomes"}, {"measurement": "Amount of Gba in the lysosomes", "setting": "[3]; N370S fibroblasts, 30.0 μM", "value": "increased"}, {"measurement": "Lysosome staining pattern for Gba and LAMP-1", "setting": "[3]; N370S fibroblasts, 30.0 μM", "value": "re-established a normal lysosome punctuate staining pattern"}, {"measurement": "Amount of Gba seen in the lysosome", "setting": "[3]; [5]", "value": "increased"}, {"measurement": "Lysosomal staining pattern of the cells", "setting": "[3]; [5]", "value": "restored a normal lysosomal staining pattern"}, {"measurement": "Gba activity in brain", "setting": "human L444P mutated Gba; after 2 weeks of treatment, untreated about 1 U/mg", "value": "about 4.5 U/mg"}, {"measurement": "Gba activity in brain", "setting": "human L444P mutated Gba; after 4 weeks of treatment, untreated about 1 U/mg", "value": "about 4.5 U/mg"}, {"measurement": "Gba activity in brain", "setting": "human L444P mutated Gba; after 12 weeks of treatment, p<0.001", "value": "about 6 U/mg"}, {"measurement": "Gba activity in brain, washout study (in words)", "setting": "human L444P mutated Gba; after 4 weeks of treatment at 10 mg/kg/day (FIG. 1B)", "value": "significantly elevated"}, {"measurement": "Gba activity in brain (in words)", "setting": "human L444P mutated Gba; after as little as two weeks of treatment, persisted through 4-12 weeks (FIG. 1A)", "value": "Significant increase"}, {"measurement": "Rescue of Gba", "setting": "Gaucher patient cells", "value": "rescue"}, {"measurement": "Detection in the CSF following treatment", "setting": "[4]", "value": "detected"}]}
{"compound": "OCC1C(Cc2ccccc2)NCC(O)[C@@H]1O", "note": "(stereo partly shown) [C-benzyl-isofagomine]", "values": [{"measurement": "Gba staining localization", "setting": "[3]; 3 μM, Gba staining only (FIG. 2N)", "value": "localize to lysosomes"}, {"measurement": "Amount of Gba in the lysosomes", "setting": "[3]; [6]", "value": "increased"}, {"measurement": "Lysosome staining pattern for Gba and LAMP-1", "setting": "[3]; [6]", "value": "re-established a normal lysosome punctuate staining pattern"}, {"measurement": "Gba activity in brain (in words)", "setting": "human L444P mutated Gba; [7]", "value": "trend toward increased activity"}, {"measurement": "Gba activity in lung (in words)", "setting": "human L444P mutated Gba; [7]", "value": "trend toward increased activity"}, {"measurement": "Gba activity in spleen (in words)", "setting": "human L444P mutated Gba; [7]", "value": "significant increased"}, {"measurement": "Gba activity in brain (in words)", "setting": "human L444P mutated Gba; after two weeks of treatment, data not shown, listed as AT2206", "value": "trend toward increase"}]}
